Like-named read-outs stand apart in the source and are kept apart here.
Tests used:
[1] = molecular target: T1, PKCδ-C1B peptide (Mus musculus, UniProt P28867); settings: read-out: Ki for binding to PKCδ-C1B; cited from earlier work
T1 construct: made in house; host or cells: chemical peptide synthesis (no expression host)

[2] = molecular target: T1, PKCδ-C1B peptide; assay: Competition binding assay with [3H]PDBu using synthetic PKCδ-C1B peptide
Procedure: The binding of [^3H]PDBu to the PKCδ-C1B peptide was evaluated by the procedure of Sharkey and Blumberg with modifications as reported previously using 50 mM tris-maleate buffer (pH 7.4 at 4 °C), 13.8 nM PKCδ-C1B peptide, 20 nM [^3H]PDBu (18.7 Ci/mmol, Perkin-Elmer Life Sciences), 50 μg/mL 1,2-dioleoyl-sn-glycero-3-phospho-L-serine (Sigma, St. Louis, MO, USA), 3 mg/mL bovine γ-globulin (Sigma, St. Louis, MO, USA), and various concentrations of inhibitors. The concentration of the properly folded PKCδ-C1B peptide was estimated to be about 3 nM on the basis of Bmax values of Scatchard analyses reported previously. Binding affinity was evaluated based on the concentration required to cause 50% inhibition of the specific binding of [^3H]PDBu, the IC50, which was calculated with Microsoft Excel. The inhibition constant, Ki, was calculated by the method of Sharkey and Blumberg.

[3] = system: shrimp Palaemon paucidens; assay: Crustacean lethality test, injection into abdominal cavity of shrimp; format: in vivo; settings: for LD100 (lethal dose 100%): injection into abdominal cavity, monitored for 4 h
Procedure: The shrimp Palaemon paucidens (average weight, 0.5 g) was used for the crustacean lethality test. Tested samples were suspended with 1% Tween 20 (polyoxyethylene (20) sorbitan monolaurate). Two micro liter of each sample suspension was injected into the abdominal cavity of the shrimp (n = 3–5). The shrimp were monitored every 30 min for 4 h. Through the lethality tests, the lethal dose 100% values (LD100) were determined. One percent Tween 20 without sample was used as reference. LD100 was defined as weight of sample per unit weight of crustacean.

[4] = Cytotoxicity assay toward L1210 leukemia cells; format: cell-based; settings: mouse
Procedure: The cytotoxic activities of compounds 1 and 2 were tested toward L1210 mouse leukemia cells. The detailed methods were reported previously. Differences with the reported methods were (a) samples were dissolved with methanol; and (b) the methanol dissolved samples were applied onto each well and air-dried before the addition of L1210 cells.

[5] = system: HeLa cells; settings: read-out: IC50 (cytotoxic effects); cited from earlier work
[6] = system: ACC-MESO-1 cells; settings: read-out: IC50 (cytotoxic effects); cited from earlier work

T1 sequence (P28867 231-281 limits assumed): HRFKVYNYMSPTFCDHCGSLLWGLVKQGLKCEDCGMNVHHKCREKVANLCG

Compound | Ki [1] [µM] | Ki [2] [µM] | Times lower binding affinity for PKC compared to lyngbyatoxin A (2) ([2]; PKCδ-C1B peptide, relative to compound 2) | LD100 (lethal dose 100%) [3] [mg/kg] | Dose causing paralysis ([3]; injection, dose below the lethal dose) [mg/kg] | IC50 [4] [µM] | IC50 [5] [µM] | Paralysis at dose less than the lethal amount ([3]; injection) | IC50 [6] [µM]
CO[C@@H](CC[C@H](C)[C@H]1O[C@@]23C[C@H](OC(=O)C[C@H]([C@@H](C)O)OC(=O)C[C@](O)(O2)[C@H](C)CC3(C)C)[C@@H]1C)c1cc(O)ccc1Br [ATX, Aplysiatoxin] | 0.00041 | – | – | – | – | – | – | – | –
CO[C@@H](CC[C@H](C)[C@H]1O[C@@]23C[C@H](OC(=O)C[C@H]([C@@H](C)O)OC(=O)C[C@](O)(O2)[C@H](C)CC3(C)C)[C@@H]1C)c1cccc(O)c1 [DATX, debromoaplysiatoxin] | 0.0002 | – | – | – | – | – | – | – | –
C=C[C@@](C)(CCC=C(C)C)c1ccc2c3c(c[nH]c13)C[C@@H](CO)NC(=O)[C@@H](C(C)C)N2C [compound 1, 12-Epi-lyngbyatoxin A] | – | 0.017 | more than 100 times | 7.5 | 0.9 | 20.4 | – | – | –
C=C[C@@](C)(CCC=C(C)C)c1ccc2c3c(c[nH]c13)C[C@@H](CO)NC(=O)[C@H](C(C)C)N2C [compound 2, Lyngbyatoxin A] | – | 0.00011 | – | 5 | – | 8.1 | 35 | Paralysis was not observed | 11

From article PMC4052313, “A New Lyngbyatoxin from the Hawaiian Cyanobacterium Moorea producens” (Marine Drugs, 2014)
